The source of these data is US6166030A, “Compounds” (priority 1997, dated 2000).

This test concerns endothelial nitric oxide synthase. Briefly: Screen for endothelial nitric oxide synthase inhibiting activity. It is filed as biochemical, human. The settings on record: reference standard at 1 μM; endothelial enzyme from HUVECs.

Description: Nitric oxide synthase converts ^3 H-L-arginine into ^3 H-L-citrulline which can be separated by cation exchange chromatography and quantified by scintillation counting.
The enzyme is isolated from human umbilical vein endothelial cells (HUVECs) by a procedure based on that of Pollock et al in Proc. Natl. Acad. Sci., 1991, 88, 10480-10484. HUVECs were purchased from Clonetics Corp (San Diego, Calif., USA) and cultured to confluency. Cells can be maintained to passage 35-40 without significant loss of yield of nitric oxide synthase. When cells reach confluency, they are resuspended in Dulbecco's phosphate buffered saline, centrifuged at 800 rpm for 10 minutes, and the cell pellet is then homogenised in ice-cold 50 mM Tris-HCl, 1 mM EDTA, 10% glycerol, 1 mM phenylmethylsulphonylfluoride, 2 μM leupeptin at pH 4.2. Following centrifugation at 34,000 rpm for 60 minutes, the pellet is solubilised in the homogenisation buffer which also contains 20 mM CHAPS. After a 30 minute incubation on ice, the suspension is centrifuged at 34,000 rpm for 30 minutes. The resulting supernatant is stored at -80° C. until use. […]
Labelled L-citrulline is separated from labelled L-arginine by chromatography over a Dowex AG-50W-X8 200-400 mesh column. […] The L-citrulline is then quantified by scintillation counting. […]

For the compound `N=C(NCCC[C@H](N)C(=O)O)N[N+](=O)[O-]` [N-nitro-L-arginine], the “inhibition of nitric oxide synthetase” value is on record as 70-90%.
